Source: ChEMBL document CHEMBL5107981, “A comprehensive comparative study on LSD1 in different cancers and tumor specific LSD1 inhibitors” (Eur J Med Chem, 2022)
pIC50: −log10 of the molar value.

Columns and labels:
[1] = molecular target: T1, Lysine-specific histone demethylase 1A (Homo sapiens, UniProt O60341); assay: Inhibition of recombinant LSD1 (unknown origin) incubated for 1 hr
[2] = Antiproliferative activity against human AML cell; type: functional, cell-based; conditions: Acute myeloid leukemic cell
[3] = Antiproliferative activity against human SCLC cell; type: functional, cell-based; conditions: Small cell lung cancer cell line
[4] = molecular target: T1, Lysine-specific histone demethylase 1A
Description: Inhibition of LSD1 (unknown origin)

Structure (SMILES): Oc1ccc(/C=C/c2cc(O)cc(O)c2)cc1 [RESVERATROL]
- pIC50 [1]: 4.82

Structure (SMILES): O=C(O)c1ccc(CN2CCC(CN[C@@H]3C[C@H]3c3ccccc3)CC2)cc1 [GSK2879552]
- pIC50 [2]: 7.62
- pIC50 [3]: 7.62

Structure (SMILES): C/C(=N\NC(=O)c1cccc(S(=O)(=O)N2CCN(C)CC2)c1)c1cc(Cl)ccc1O
- pIC50 [4]: 7.89
